Source: patent US10912770B2, “Targeting AMP deaminase 2 for ameliorating craving for sugar and other substances” (The Regents of the University of Colorado, a body coporate, priority 2016, dated 2021)
Entries after “also recorded” stand apart in the source; their conditions may differ.

Tests used:
human AMPDA = conditions: cited from earlier work; for Ki: human AMPDA, read-out: AMPDA K(i)
AMPD2 = target: T1, AMPD2 (Mus musculus, UniProt Q9DBT5); test: AMPD2 activity in the liver after oral pan AMPD inhibitor; type: in vivo; conditions: wild type mice, gavage 25 mg/kg twice daily (50 mg/kg/d)
T1 construct: from tissue
T1 sequence (Q9DBT5 1-824): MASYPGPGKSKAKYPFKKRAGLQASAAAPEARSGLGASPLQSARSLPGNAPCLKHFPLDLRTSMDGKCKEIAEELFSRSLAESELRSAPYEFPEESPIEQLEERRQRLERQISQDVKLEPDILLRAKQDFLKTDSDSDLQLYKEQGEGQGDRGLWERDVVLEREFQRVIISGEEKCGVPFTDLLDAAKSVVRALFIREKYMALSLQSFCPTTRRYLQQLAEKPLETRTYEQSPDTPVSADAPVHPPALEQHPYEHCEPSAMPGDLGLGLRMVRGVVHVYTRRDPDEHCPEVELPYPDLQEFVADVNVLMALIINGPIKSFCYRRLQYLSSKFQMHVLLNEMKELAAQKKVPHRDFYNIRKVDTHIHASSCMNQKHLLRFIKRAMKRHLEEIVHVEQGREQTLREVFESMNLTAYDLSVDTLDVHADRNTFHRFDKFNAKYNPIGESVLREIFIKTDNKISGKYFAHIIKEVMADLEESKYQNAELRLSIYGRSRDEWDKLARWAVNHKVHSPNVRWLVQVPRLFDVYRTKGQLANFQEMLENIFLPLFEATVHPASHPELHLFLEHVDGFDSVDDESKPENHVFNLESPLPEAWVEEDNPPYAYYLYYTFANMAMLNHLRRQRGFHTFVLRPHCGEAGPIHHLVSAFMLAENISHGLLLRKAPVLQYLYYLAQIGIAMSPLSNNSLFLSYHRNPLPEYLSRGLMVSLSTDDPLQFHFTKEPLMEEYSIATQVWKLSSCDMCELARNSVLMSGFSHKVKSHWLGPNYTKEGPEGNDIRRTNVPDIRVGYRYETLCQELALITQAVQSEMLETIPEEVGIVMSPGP
Method: (§1) Mice were administered the racemate of the active compound 1 (FIG. 2 in the paper by Admyre et al Chem Biol 2014; 21:1488-1496) by gavage at a dose of 25 mg/kg twice daily beginning two days before administering fructose (15%) in the drinking water.
(§2) The benefit from blocking AMPD2 on craving is not limited to mice genetically lacking AMPD2. Recently an inhibitor for AMPD2 was published, and we made a racemate of the active compound 1 (FIG. 2 in the paper by Admyre et al Chem Biol 2014; 21:1488-1496).

wild type mice = test: Fructose craving: intake of fructose (15%) drinking water; type: in vivo
Method: as §1, §2

adenosine deaminase = target: T2, adenosine deaminase (Homo sapiens, UniProt P00813); conditions: cited from earlier work
T2 sequence (P00813 1-363): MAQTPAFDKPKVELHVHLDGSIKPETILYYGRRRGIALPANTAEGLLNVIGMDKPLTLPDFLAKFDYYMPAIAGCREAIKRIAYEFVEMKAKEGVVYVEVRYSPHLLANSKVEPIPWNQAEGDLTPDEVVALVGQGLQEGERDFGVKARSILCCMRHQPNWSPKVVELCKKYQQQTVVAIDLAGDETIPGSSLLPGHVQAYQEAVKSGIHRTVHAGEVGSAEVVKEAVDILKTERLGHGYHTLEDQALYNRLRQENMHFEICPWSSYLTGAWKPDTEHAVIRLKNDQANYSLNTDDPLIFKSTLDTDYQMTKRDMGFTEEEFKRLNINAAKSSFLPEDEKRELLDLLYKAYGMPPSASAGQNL

Compound	Ki (human AMPDA) [nM]	AMPD2 activity in the liver (AMPD2)	craving for fructose (wild type mice; gavage 25 mg/kg twice daily (50 mg/kg/d), fructose (15%) water)	intake of fructose-containing water (wild type mice; gavage 25 mg/kg twice daily from two days before fructose (15%) in drinking water)	enzyme specificity (adenosine deaminase)	enhancement in AMPDA inhibitory potency (human AMPDA)	potency (K(i)) lower than the Km for the substrate AMP (human AMPDA)
CCc1cc(CCn2cnc3c2N=CNCC3O)cc(C(=O)O)c1 (centres unmarked) [43 g, 3-[2-(3-carboxy-5-ethylphenyl)ethyl]-3,6,7,8-tetrahydroimidazo[4,5-d][1,3]diazepin-8-ol]	60						
CC(NCc1ccc(-c2ccc(C(=O)O)cn2)cc1)c1cccc2ccncc12 (racemic) [racemate of the active compound 1, 6-(4-((1-(Isoquinolin-8-yl)ethylamino)methyl)phenyl)nicotinic acid]		significantly block AMPD2 activity in the liver; also recorded: inhibition of AMPD2 activity in the liver	completely blocked the craving for fructose	significantly reduce the intake of fructose-containing water			
3-[2-(3-carboxy-4-bromo-5,6,7,8-tetrahydronaphthyl)ethyl]-3,6,7,8-tetrahydroimidazo[4,5-d][1,3]diazepin-8-ol [Compound 24b]	2				without loss in the enzyme specificity	10- to 250 fold	10(5) fold
